From US20240409556A1, “BENZOPIPERAZINE AND RELATED ANALOGS FOR INHIBITING YAP/TAZ-TEAD” (Springworks Therapeutics, Inc., priority 2023, published 2024)

Test system: YAP/TAZ-TEAD transcription
Assay: Reporter gene assay for measuring the inhibition of YAP/TAZ-TEAD transcription (TEAD-responsive element luciferase reporter in Hek293T cells)
Format: cell-based
Details: 24 hours incubation
Summary of the method: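 HEK293T cells transiently transfected with a TEAD-responsive luciferase reporter were exposed to compounds for 24 h at 37° C/5% CO2, then luminescence was read. Percent inhibition normalised to vehicle (0%) and positive-control inhibitor (100%); IC50 derived.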

| Structure (SMILES) | IC50 (Homo sapiens, HEK-293T, 24 h) | IC50 |
| --- | --- | --- |
| FC(F)(F)c1ccc(N2CCN(Cc3cccnc3)c3ccccc32)cc1 [compound 64, 1-(pyridin-3-ylmethyl)-4-(4-(trifluoromethyl)phenyl)-1,2,3,4-tetrahydroquinoxaline] | 1000 to 10000 nM | – |
| O=S1(=O)CCN2c3ncccc3N(c3ccc(C(F)(F)F)cc3)CC2C1 (stereo not drawn) [compound 68, 5-(4-(trifluoromethyl)phenyl)-5,6,6a,7,9,10-hexahydropyrido[3′,2′:5,6]pyrazino[2,1-c][1,4]thiazine 8,8-dioxide] | 1000 to 10000 nM | – |
| FC(F)(F)c1ccc(N2CCN(Cc3ccno3)c3ccccc32)cc1 [compound 69, 5-((4-(4-(trifluoromethyl)phenyl)-3,4-dihydroquinoxalin-1(2H)-yl)methyl)isoxazole] | > 10000 nM | – |
| CS(=O)(=O)N1CCN2C(=O)CN(c3ccc(C(F)(F)F)cc3)CC2C1 (stereo not drawn) [compound 71, 8-(methylsulfonyl)-2-(4-(trifluoromethyl)phenyl)octahydro-4H-pyrazino[1,2-a]pyrazin-4-one] | > 10000 nM | – |
| CNS(=O)(=O)N1CCN2C(=O)CN(c3ccc(C(F)(F)F)cc3)CC2C1 (stereo not drawn) [compound 72, N-methyl-6-oxo-8-(4-(trifluoromethyl)phenyl)octahydro-2H-pyrazino[1,2-a]pyrazine-2-sulfonamide] | > 10000 nM | – |
| COc1ccc2c(n1)OC(CNC(C)=O)CN2c1ccc(C(F)(F)F)cc1 (stereo not drawn) [compound 73, N-((6-methoxy-1-(4-(trifluoromethyl)phenyl)-2,3-dihydro-1H-pyrido[2,3-b][1,4]oxazin-3-yl)methyl)acetamide] | – | < 1000 nM |
| CC(=O)NCC1CN(c2ccc(C(F)(F)F)cc2)c2cc(Cl)cnc2O1 (stereo not drawn) [compound 75, N-((7-chloro-1-(4-(trifluoromethyl)phenyl)-2,3-dihydro-1H-pyrido[2,3-b][1,4]oxazin-3-yl)methyl)acetamide] | – | < 1000 nM |
| CC(=O)NCC1CN(c2ccc(C(F)(F)F)cc2)c2ccc(C(F)(F)F)nc2O1 (stereo not drawn) [compound 76, N-((6-(trifluoromethyl)-1-(4-(trifluoromethyl)phenyl)-2,3-dihydro-1H-pyrido[2,3-b][1,4]oxazin-3-yl)methyl)acetamide] | 1000 to 10000 nM | – |
| CC(=O)NCC1CN(c2ccc(C(F)(F)F)cn2)c2cccnc2O1 (stereo not drawn) [compound 78, N-((1-(5-(trifluoromethyl)pyridin-2-yl)-2,3-dihydro-1H-pyrido[2,3-b][1,4]oxazin-3-yl)methyl)acetamide] | 1000 to 10000 nM | – |
| CC(=O)N1CC(=O)N2c3ccccc3N(c3ccc(C(F)(F)F)cc3)CC2C1 (stereo not drawn) [compound 79] | – | < 1000 nM |
| CC(=O)NCC1CN(c2ccc(C(F)(F)F)cc2)c2ccc(C3CC3)nc2O1 (stereo not drawn) [compound 81, N-((6-cyclopropyl-1-(4-(trifluoromethyl)phenyl)-2,3-dihydro-1H-pyrido[2,3-b][1,4]oxazin-3-yl)methyl)acetamide] | – | < 1000 nM |
| COC(=O)N[C@@H]1C[C@@H]2CN(c3ccc(C(F)(F)F)cc3)c3cccnc3N2C1 [compound 83, methyl ((6aR,8R)-5-(4-(trifluoromethyl)phenyl)-5,6,6a,7,8,9-hexahydropyrido[3,2-e]pyrrolo[1,2-a]pyrazin-8-yl)carbamate] | < 1000 nM | – |
| CNC(=O)N[C@@H]1C[C@@H]2CN(c3ccc(C(F)(F)F)cc3)c3cccnc3N2C1 [compound 84, 1-methyl-3-((6aR,8R)-5-(4-(trifluoromethyl)phenyl)-5,6,6a,7,8,9-hexahydropyrido[3,2-e]pyrrolo[1,2-a]pyrazin-8-yl)urea] | < 1000 nM | – |
| CC(=O)NCC1CN(c2ccc(C(F)(F)F)cc2)c2ccc(N(C)C)nc2O1 (stereo not drawn) [compound 87, N-((6-(dimethylamino)-1-(4-(trifluoromethyl)phenyl)-2,3-dihydro-1H-pyrido[2,3-b][1,4]oxazin-3-yl)methyl)acetamide] | < 1000 nM | – |
| C=CC(=O)N1CC2CN(c3ccc(C(F)(F)F)cc3)c3ccccc3N2CC1C(=O)O (stereo not drawn) [compound 88, (cis)- or (trans)-3-acryloyl-6-(4-(trifluoromethyl)phenyl)-2,3,4,4a,5,6-hexahydro-1H-pyrazino[1,2-a]quinoxaline-2-carboxylic acid] | < 1000 nM | – |
| C=CC(=O)N1CC2CN(c3ccc(C(F)(F)F)cc3)c3ccccc3N2CC1C(=O)O (stereo not drawn) [compound 89, (cis)- or (trans)-3-acryloyl-6-(4-(trifluoromethyl)phenyl)-2,3,4,4a,5,6-hexahydro-1H-pyrazino[1,2-a]quinoxaline-2-carboxylic acid] | – | < 1000 nM |
| CC(=O)N1CC2CN(c3ccc(C(F)(F)F)cc3)c3ccccc3N2CC1C(=O)O (stereo not drawn) [compound 90, (cis)- or (trans)-3-acetyl-6-(4-(trifluoromethyl)phenyl)-2,3,4,4a,5,6-hexahydro-1H-pyrazino[1,2-a]quinoxaline-2-carboxylic acid] | – | > 10000 nM |
| CC(=O)N1CC2CN(c3ccc(C(F)(F)F)cc3)c3ccccc3N2CC1C(=O)O (stereo not drawn) [compound 91, (cis)- or (trans)-3-acetyl-6-(4-(trifluoromethyl)phenyl)-2,3,4,4a,5,6-hexahydro-1H-pyrazino[1,2-a]quinoxaline-2-carboxylic acid] | – | < 1000 nM |

The next lines start with the values.

| IC50 (Homo sapiens, HEK-293T, 24 h) | IC50 | Structure (SMILES) |
| --- | --- | --- |
| < 1000 nM | – | Cn1cncc1CN1CCN(c2ccc(C(F)(F)F)cc2)c2ccccc21 [compound 60, 1-((1-methyl-1H-imidazol-5-yl)methyl)-4-(4-(trifluoromethyl)phenyl)-1,2,3,4-tetrahydroquinoxaline] |
| < 1000 nM | – | Cc1ncc(CN2CCN(c3ccc(C(F)(F)F)cc3)c3ccccc32)[nH]1 [compound 61, 1-((2-methyl-1H-imidazol-5-yl)methyl)-4-(4-(trifluoromethyl)phenyl)-1,2,3,4-tetrahydroquinoxaline] |
| < 1000 nM | – | FC(F)(F)c1ccc(N2CCN(Cc3ncc[nH]3)c3ccccc32)cc1 [compound 62, 1-((1H-imidazol-2-yl)methyl)-4-(4-(trifluoromethyl)phenyl)-1,2,3,4-tetrahydroquinoxaline] |
| < 1000 nM | – | Cc1nc[nH]c1CN1CCN(c2ccc(C(F)(F)F)cc2)c2ccccc21 [compound 66, 1-((4-methyl-1H-imidazol-5-yl)methyl)-4-(4-(trifluoromethyl)phenyl)-1,2,3,4-tetrahydroquinoxaline] |
| < 1000 nM | – | FC(F)(F)c1ccc(N2CCN(Cc3cnco3)c3ccccc32)cc1 [compound 67, 5-((4-(4-(trifluoromethyl)phenyl)-3,4-dihydroquinoxalin-1(2H)-yl)methyl)oxazole] |
| < 1000 nM | – | O=C(c1cn[nH]c1)N1CCN(c2ccc(C(F)(F)F)cc2)c2ccccc21 [compound 74, (1H-pyrazol-4-yl)(4-(4-(trifluoromethyl)phenyl)-3,4-dihydroquinoxalin-1(2H)-yl)methanone] |
| < 1000 nM | – | CC(=O)NCC1CN(c2ccc(C(F)(F)F)cc2)c2ccc(C)nc2O1 (stereo not drawn) [compound 77, N-((6-methyl-1-(4-(trifluoromethyl)phenyl)-2,3-dihydro-1H-pyrido[2,3-b][1,4]oxazin-3-yl)methyl)acetamide] |
| < 1000 nM | – | O=C1CN(c2ccc(C(F)(F)F)cc2)c2ccccc2N1Cc1cn[nH]c1 [compound 80, 1-((1H-pyrazol-4-yl)methyl)-4-(4-(trifluoromethyl)phenyl)-3,4-dihydroquinoxalin-2(1H)-one] |
| < 1000 nM | – | CCc1ccc2c(n1)OC(CNC(C)=O)CN2c1ccc(C(F)(F)F)cc1 (stereo not drawn) [compound 82, N-((6-ethyl-1-(4-(trifluoromethyl)phenyl)-2,3-dihydro-1H-pyrido[2,3-b][1,4]oxazin-3-yl)methyl)acetamide] |
